What was measured:
Type in all cases: in vivo
[1] = test system: Alopercurus myosuroides (ALOMY); experiment: Greenhouse herbicidal test, post-emergence; settings: postemergence, application rate 5 kg/ha, scale 0 to 100
Description: (§1) The culture containers used were plastic flowerpots containing loamy sand with approximately 3.0% of humus as the substrate. The seeds of the test plants were sown separately for each species.
(§2) For the post-emergence treatment, the test plants were first grown to a height of 2 to 15 cm, depending on the plant habit, and only then treated with the active ingredients which had been suspended or emulsified in water. For this purpose, the test plants were either sown directly and grown in the same containers, or they were first grown separately as seedlings and transplanted into the test containers a few days prior to treatment.
(§3) Depending on the species, the test plants were kept at 10-25° C. or 20-35° C., respectively.
(§4) The test period extended over 2 to 4 weeks. During this time, the test plants were tended, and their response to the individual treatments was evaluated.
(§5) Evaluation was carried out using a scale from 0 to 100. 100 means no emergence of the test plants, or complete destruction of at least the aerial moieties, and 0 means no damage, or normal course of growth. A moderate herbicidal activity is given at values of 40 to 59, good herbicidal activity is given at values of more than 59 to 80 and a very good herbicidal activity is given at values of more than 80 to 100.

[2] = test system: Apera spica-venti (APESV); experiment: Greenhouse herbicidal test, pre-emergence; settings: application rate 5 kg/ha, scale 0 to 100
Description: as §1
For the pre-emergence treatment, the active ingredients, which had been suspended or emulsified in water, were applied directly after sowing by means of finely distributing nozzles. The containers were irrigated gently to promote germination and growth and subsequently covered with transparent plastic hoods until the test plants had rooted. This cover caused uniform germination of the test plants, unless this had been impaired by the active ingredients.
as §3, §4, §5

Setaria viridis (SETVI) = experiment: Greenhouse herbicidal test, post-emergence; settings: postemergence, application rate 5 kg/ha, scale 0 to 100
Description: as §1, §2, §3, §4, §5

[3] = test system: Amaranthus retroflexus (AMARE); experiment: Greenhouse herbicidal test, post-emergence; settings: postemergence, application rate 5 kg/ha, scale 0 to 100
Description: as §1, §2, §3, §4, §5

[4] = test system: Echinocloa crus-galli (ECHCG); experiment: Greenhouse herbicidal test, post-emergence; settings: postemergence, application rate 5 kg/ha, scale 0 to 100
Description: as §1, §2, §3, §4, §5

CP(=O)(O)CCC(NC(N)=O)C(=O)O (centres unmarked) [Compound a]
herbicidal activity against ALOMY [1]: moderate (A moderate herbicidal activity is given at values of 40 to 59)

CP(=O)(O)CC[C@@H](NC(N)=O)C(=O)O [Compound b]
herbicidal activity against APESV [2]: good (good herbicidal activity is given at values of more than 59 to 80)

CP(=O)(O)CCC1NC(=O)NC1=O (centres unmarked) [Compound e]
herbicidal activity against SETVI (Setaria viridis (SETVI)): good (good herbicidal activity is given at values of more than 59 to 80)

CCCCOP(C)(=O)CCC(NC(N)=O)C(=O)O (centres unmarked) [Compound f, 4-[butoxy(methyl)phosphoryl]-2-ureido-butanoic acid]
herbicidal activity against AMARE [3]: good (good herbicidal activity is given at values of more than 59 to 80) | herbicidal activity against ECHCG [4]: good (good herbicidal activity is given at values of more than 59 to 80)
